Experimental data taken from PubChem BioAssay (NCI).
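1) Cells in 96-well plates. 2) Compound, 48 h, 5 concentrations. 3) Linear interpolation between surrounding doses. 4) Unreached endpoint = highest concentration. GI50 = concentration required for 50% inhibition of growth. The concentration for full growth arrest is given as TGI.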

Key:
Assay in all cases: inhibition of tumour cell growth, NCI panel, 48 h
786-0 renal = system: 786-0 renal
A498 renal = system: A498 renal
CAKI-1 renal = system: CAKI-1 renal
KM12 colon = system: KM12 colon
MALME-3M melanoma = system: MALME-3M melanoma
NCI-H23 lung = system: NCI-H23 lung
SF-295 CNS = system: SF-295 CNS
SNB-19 CNS = system: SNB-19 CNS
SNB-75 CNS = system: SNB-75 CNS
UACC-62 melanoma = system: UACC-62 melanoma

CC[C@H](CO)Nc1nc(NCc2ccccc2)n2ncc(C(C)C)c2n1
GI50 (786-0 renal): 1.98 µM
TGI (786-0 renal): 10.7 µM
GI50 (A498 renal): 1.25 µM
TGI (A498 renal): 3.44 µM
GI50 (CAKI-1 renal): 1.02 µM
TGI (CAKI-1 renal): 8.35 µM
GI50 (KM12 colon): 0.711 µM
TGI (KM12 colon): 2.79 µM
GI50 (MALME-3M melanoma): 2.6 µM
TGI (MALME-3M melanoma): 6.99 µM
GI50 (NCI-H23 lung): 1.71 µM
TGI (NCI-H23 lung): 7.79 µM
GI50 (SF-295 CNS): 0.812 µM
TGI (SF-295 CNS): 4.74 µM
GI50 (SNB-19 CNS): 1.44 µM
TGI (SNB-19 CNS): 12.3 µM
GI50 (SNB-75 CNS): 1.31 µM
TGI (SNB-75 CNS): 3.33 µM
GI50 (UACC-62 melanoma): 1.37 µM
TGI (UACC-62 melanoma): 5.5 µM

Cc1ccc(S(=O)(=O)Nc2cccc3[nH]c(C(F)(F)F)nc23)cc1
GI50 (786-0 renal): 1.94 µM
TGI (786-0 renal): 67.3 µM
GI50 (A498 renal): 0.262 µM
TGI (A498 renal): 1.82 µM
GI50 (CAKI-1 renal): 0.337 µM
TGI (CAKI-1 renal): 24.4 µM
GI50 (KM12 colon): 0.347 µM
TGI (KM12 colon): 26.8 µM
GI50 (MALME-3M melanoma): 1.95 µM
TGI (MALME-3M melanoma): 37.3 µM
GI50 (NCI-H23 lung): 1.66 µM
TGI (NCI-H23 lung): 41.5 µM
GI50 (SF-295 CNS): 0.283 µM
TGI (SF-295 CNS): 1.54 µM
GI50 (SNB-19 CNS): 0.972 µM
TGI (SNB-19 CNS): > 100 µM
GI50 (SNB-75 CNS): 0.314 µM
TGI (SNB-75 CNS): 2.45 µM
GI50 (UACC-62 melanoma): 0.62 µM
TGI (UACC-62 melanoma): > 54 µM

COc1c2c(nc3ccccc13)-c1cc3c(c(=O)n1C2)COC(=O)C3(O)CC(=O)N1CCOCC1 (configuration not stated)
TGI (786-0 renal): 12.8 µM
TGI (A498 renal): 46.4 µM
TGI (CAKI-1 renal): 54 µM
TGI (KM12 colon): 57.5 µM
TGI (MALME-3M melanoma): > 100 µM
TGI (NCI-H23 lung): 8.05 µM
TGI (SF-295 CNS): 31.7 µM
TGI (SNB-19 CNS): 83.6 µM
TGI (SNB-75 CNS): 11.6 µM
TGI (UACC-62 melanoma): 8.35 µM

CN(/N=C/c1cccc2cccnc12)c1ccccc1
TGI (786-0 renal): > 100 µM
TGI (A498 renal): > 100 µM
TGI (CAKI-1 renal): > 100 µM
TGI (KM12 colon): > 100 µM
TGI (MALME-3M melanoma): > 100 µM
TGI (NCI-H23 lung): > 100 µM
TGI (SF-295 CNS): > 100 µM
TGI (SNB-19 CNS): > 100 µM
TGI (SNB-75 CNS): > 100 µM
TGI (UACC-62 melanoma): > 100 µM

O=C(Nc1cccc(NC(=O)Nc2cc(C(F)(F)F)ccc2Cl)c1)Nc1cc(C(F)(F)F)ccc1Cl
GI50 (786-0 renal): 4.93 µM
TGI (786-0 renal): > 100 µM
GI50 (A498 renal): 1.48 µM
TGI (A498 renal): 7.63 µM
GI50 (CAKI-1 renal): 3.14 µM
TGI (CAKI-1 renal): > 100 µM
GI50 (KM12 colon): 1.53 µM
TGI (KM12 colon): 57.1 µM
GI50 (MALME-3M melanoma): 4.55 µM
TGI (MALME-3M melanoma): 44.1 µM
GI50 (NCI-H23 lung): 2.61 µM
TGI (NCI-H23 lung): 15.9 µM
GI50 (SF-295 CNS): 1.59 µM
TGI (SF-295 CNS): 12.2 µM
GI50 (SNB-19 CNS): 1.77 µM
TGI (SNB-19 CNS): 14 µM
GI50 (SNB-75 CNS): 1.56 µM
TGI (SNB-75 CNS): 4.51 µM
GI50 (UACC-62 melanoma): 2.35 µM
TGI (UACC-62 melanoma): 16.8 µM

CS[C@]12C(=O)C[C@@]3(C)[C@@H](CC[C@]3(O)C(=O)CO)[C@@H]1CCC1=CC(=O)CC[C@@]12C
TGI (786-0 renal): > 100 µM
TGI (A498 renal): > 100 µM
TGI (CAKI-1 renal): > 100 µM
TGI (KM12 colon): > 100 µM
TGI (MALME-3M melanoma): > 100 µM
TGI (NCI-H23 lung): > 100 µM
TGI (SF-295 CNS): > 100 µM
TGI (SNB-19 CNS): > 100 µM
TGI (SNB-75 CNS): > 100 µM
TGI (UACC-62 melanoma): > 100 µM

C[C@]12CCC3[C@@H](CC[C@@H]4c5nonc5CC[C@]34C)C1C/C(=N/O)C2=O (some centres not stated)
TGI (786-0 renal): > 100 µM
TGI (A498 renal): > 100 µM
TGI (CAKI-1 renal): > 100 µM
TGI (KM12 colon): > 100 µM
TGI (MALME-3M melanoma): > 100 µM
TGI (NCI-H23 lung): > 100 µM
TGI (SF-295 CNS): > 100 µM
TGI (SNB-19 CNS): > 100 µM
TGI (SNB-75 CNS): 2.98 µM
TGI (UACC-62 melanoma): > 100 µM

CC[N+]1(C)CCC(O)(c2ccc(Cl)c(Cl)c2)C(C(=O)c2ccc(Cl)c(Cl)c2)C1 (configuration not stated)
TGI (786-0 renal): > 10 µM
TGI (A498 renal): > 10 µM
TGI (CAKI-1 renal): > 10 µM
TGI (KM12 colon): > 10 µM
TGI (MALME-3M melanoma): > 10 µM
TGI (NCI-H23 lung): > 10 µM
TGI (SF-295 CNS): > 10 µM
TGI (SNB-19 CNS): > 10 µM
TGI (SNB-75 CNS): > 10 µM

COC(=O)CCC(NC(=S)N/N=C/c1ccco1)C(=O)OC (configuration not stated)
TGI (786-0 renal): > 100 µM
TGI (A498 renal): > 100 µM
TGI (KM12 colon): > 100 µM
TGI (MALME-3M melanoma): > 100 µM
TGI (NCI-H23 lung): > 100 µM
TGI (SF-295 CNS): > 100 µM
TGI (SNB-19 CNS): > 100 µM
TGI (SNB-75 CNS): > 100 µM
TGI (UACC-62 melanoma): > 100 µM

O=S1(=O)OCCOS(=O)(=O)C1Cc1ccccc1
TGI (786-0 renal): > 100 µM
TGI (A498 renal): > 100 µM
TGI (CAKI-1 renal): > 100 µM
TGI (KM12 colon): > 100 µM
TGI (MALME-3M melanoma): > 100 µM
TGI (NCI-H23 lung): > 100 µM
TGI (SF-295 CNS): > 100 µM
TGI (SNB-19 CNS): > 100 µM
TGI (SNB-75 CNS): > 100 µM
TGI (UACC-62 melanoma): > 100 µM

CCc1cccc(C)c1NC(=O)C(=O)Cc1nc2ccccc2s1
TGI (786-0 renal): > 100 µM
TGI (A498 renal): > 100 µM
TGI (CAKI-1 renal): > 100 µM
TGI (KM12 colon): > 100 µM
TGI (MALME-3M melanoma): > 100 µM
TGI (NCI-H23 lung): > 100 µM
TGI (SF-295 CNS): > 100 µM
TGI (SNB-19 CNS): > 100 µM
TGI (SNB-75 CNS): > 100 µM
TGI (UACC-62 melanoma): > 100 µM

COc1ccc(OC)c(NC(=O)CCC/C(CC(=O)c2ccc(O)c(OC)c2)=N\Nc2ccc([N+](=O)[O-])cc2)c1
TGI (786-0 renal): > 100 µM
TGI (A498 renal): > 100 µM
TGI (CAKI-1 renal): > 100 µM
TGI (KM12 colon): > 100 µM
TGI (MALME-3M melanoma): > 100 µM
TGI (NCI-H23 lung): > 100 µM
TGI (SF-295 CNS): > 100 µM
TGI (SNB-19 CNS): > 100 µM
TGI (SNB-75 CNS): 79 µM
TGI (UACC-62 melanoma): > 100 µM

COc1ccc(C(=O)C(c2ccc(OC)cc2)C2(O)C(=O)Nc3c2ccc(Cl)c3C)cc1 (configuration not stated)
TGI (786-0 renal): > 100 µM
TGI (A498 renal): > 100 µM
TGI (KM12 colon): > 100 µM
TGI (MALME-3M melanoma): > 100 µM
TGI (NCI-H23 lung): > 100 µM
TGI (SF-295 CNS): > 100 µM
TGI (SNB-19 CNS): > 100 µM
TGI (SNB-75 CNS): > 100 µM
TGI (UACC-62 melanoma): > 100 µM
